# Tests used:
# MDR1 (P-gp) = MDR1 (P-gp) (Homo sapiens (Human), UniProt P08183); assay: MDCK assay P-gp (MDCK-MDR1 monolayer permeability); assay type: in vitro ADME; settings: for Papp A→B: MDCK-MDR1, apical-to-basal, pH 7.4; for efflux ratio: MDCK-MDR1, pH 7.4, Papp (b-a) divided by Papp (a-b), read-out: efflux ratio PEBA/PEAB
# Description: The MDCK assays provide information on the potential of a compound to pass the blood brain barrier. Permeability measurements across polarized, confluent MDCK-MDR1 cell monolayers grown on permeable filter supports are used as an in vitro absorption model: apparent permeability coefficients (PE) of the compounds across the MDCK-MDR1 cell monolayers are measured (pH 7.4, 37° C.) in apical-to-basal (AB) and basal-to-apical (BA) transport direction. The AB permeability (PEAB) represents drug absorption from the blood into the brain and the BA permeability (PEBA) drug efflux from the brain back into the blood via both, passive permeability as well as active transport mechanisms mediated by efflux and uptake transporters that are expressed on the MDCK-MDR1 cells, predominantly by the overexpressed human MDR1. Identical or similar permeabilities in both transport directions indicate passive permeation (PEBA/PEAB≤1), vectorial permeability points to additional active transport mechanisms. Higher PEBA than PEAB (PEBA/PEAB>5) indicates the involvement of active efflux mediated by MDR1, which might compromise the goal to achieve sufficient brain exposure. Therefore, this assay provides valuable support for selection of compounds applicable for further in vivo testing. High permeability not limited by efflux at the blood brain barrier is a favourable characteristic for compounds that are to be used for drugs acting primarily in the CNS.
# Apparent permeability coefficients (Papp) of the compounds across the MDCK-MDR1 monolayers (MDCKII cells transfected with human MDR1 cDNA expression plasmid) are measured in apical-to-basal (AB) and basal-to-apical (BA) direction.
# MDCK-MDR1 cells (6×10^5 cells/cm^2) are seeded on filter inserts (Corning, Transwell, polycarbonate, 0.4 μm pore size) and cultured for 9 to 10 days. Compounds dissolved in DMSO stock solution (1-20 mM) are diluted with HTP-4 aqueous buffer (128.13 mM NaCl, 5.36 mM KCl, 1 mM MgSO4, 1.8 mM CaCl2, 4.17 mM NaHCO3, 1.19 mM Na2HPO4, 0.41 mM NaH2PO4, 15 mM HEPES, 20 mM glucose, pH 7.4) supplemented with 0.25% BSA to prepare the transport solutions (final concentration: 1 or 10 μM, final DMSO <=0.5%). The transport solution is applied to the apical or basolateral donor side for measuring A-B or B-A permeability, respectively. The receiver side contains HTP-4 buffer supplemented with 0.25% BSA. Samples are collected at the start and end of experiment from the donor and at various time intervals for up to 2 hours also from the receiver side for concentration measurement by HPLC-MS/MS (RapidFire High-throughput MS System (Agilent) coupled to QTrap 6500 (AB Sciex) or TSQ Vantage (Thermo Scientific)). Sampled receiver volumes are replaced with fresh receiver solution. Efflux ratio is calculated dividing the Papp (b-a) values by the Papp (a-b) values.
# Nav1.6 channel = Nav1.6 channel (Homo sapiens (Human), UniProt Q9UQD0); assay: Nav1.6 inhibition, IonWorks Quattro electrophysiology; assay type: cell-based; settings: for inhibition at 1 µM / inhibition at 5 µM: normalized to vehicle (0%) and maximal inhibition control (100%)
# Description: Ion Works Quattro electrophysiological platform
# The compounds were prepared in DMSO at 300× the final assay concentrations of 1 and 5 μM.
# The 300× DMSO stock solutions were transferred into assay plates where 2 μl per well of each 300× stock solution were placed. All assay plates were stored at −80° C. until the day of assay.
# On the day of the assay, the appropriate assay plate was thawed at room temperature, centrifuged, and 198 μl of external recording solution was added and mixed thoroughly. This provided a 1:100 dilution. A further 1:3 dilution occurred upon addition to the cells in the IonWorks Quattro electrophysiological platform, giving a 1:300 dilution in total.
# On each assay plate, at least 8 wells were reserved for vehicle control (0.3% DMSO) and at least 8 wells for each positive control specific to the cell line tested. The positive controls were tested at a maximal blocking and an approximate IC50 concentration. As positive control Lidocaine at concentrations of 30 and 1000 μM was used.
# Amphotericin B was used to obtain electrical access to the cell interior at a final concentration of 200 μg/ml in internal recording solution.
# State-dependent inhibition: Sodium channels when held at depolarized potential or long test pulse, the channels open and inactivate and then stay inactivated until the membrane potential is stepped back to hyperpolarized potentials, when the inactivated channels recover from inactivation into closed state.
# Cells were held at −120 mV. In order to completely inactivate the sodium channels (pulse 1), the cells were pulsed to +0 mV for 2500 ms and stepped back to −120 mV for 10 ms (to completely recover from inactivation, however channels that had drugs bound to them will not recover from inactivation) before stepping to +0 mV for 20 ms (pulse 2).
# Both the positive and vehicle control data associated with each cell line assayed are shown below as an example. The mean is shown for each positive and negative control as solid symbol with the total number of individual well replicates given next to the solid symbol. In addition, the individual data of each well are shown on the graph as open symbols so that the variation about the mean value can be readily assessed.
# In FIG. 2, a Post/Pre value of 1.0 corresponds to 0% inhibition, a Post/Pre value of 0.0 corresponds to 100% inhibition.
# Tables 3 and 4 show the normalized percentage inhibition of Nav1.6 channel. […] (see also the figure Assay Control Results above).
# Chain of Nav1.6 channel (Q9UQD0 whole entry): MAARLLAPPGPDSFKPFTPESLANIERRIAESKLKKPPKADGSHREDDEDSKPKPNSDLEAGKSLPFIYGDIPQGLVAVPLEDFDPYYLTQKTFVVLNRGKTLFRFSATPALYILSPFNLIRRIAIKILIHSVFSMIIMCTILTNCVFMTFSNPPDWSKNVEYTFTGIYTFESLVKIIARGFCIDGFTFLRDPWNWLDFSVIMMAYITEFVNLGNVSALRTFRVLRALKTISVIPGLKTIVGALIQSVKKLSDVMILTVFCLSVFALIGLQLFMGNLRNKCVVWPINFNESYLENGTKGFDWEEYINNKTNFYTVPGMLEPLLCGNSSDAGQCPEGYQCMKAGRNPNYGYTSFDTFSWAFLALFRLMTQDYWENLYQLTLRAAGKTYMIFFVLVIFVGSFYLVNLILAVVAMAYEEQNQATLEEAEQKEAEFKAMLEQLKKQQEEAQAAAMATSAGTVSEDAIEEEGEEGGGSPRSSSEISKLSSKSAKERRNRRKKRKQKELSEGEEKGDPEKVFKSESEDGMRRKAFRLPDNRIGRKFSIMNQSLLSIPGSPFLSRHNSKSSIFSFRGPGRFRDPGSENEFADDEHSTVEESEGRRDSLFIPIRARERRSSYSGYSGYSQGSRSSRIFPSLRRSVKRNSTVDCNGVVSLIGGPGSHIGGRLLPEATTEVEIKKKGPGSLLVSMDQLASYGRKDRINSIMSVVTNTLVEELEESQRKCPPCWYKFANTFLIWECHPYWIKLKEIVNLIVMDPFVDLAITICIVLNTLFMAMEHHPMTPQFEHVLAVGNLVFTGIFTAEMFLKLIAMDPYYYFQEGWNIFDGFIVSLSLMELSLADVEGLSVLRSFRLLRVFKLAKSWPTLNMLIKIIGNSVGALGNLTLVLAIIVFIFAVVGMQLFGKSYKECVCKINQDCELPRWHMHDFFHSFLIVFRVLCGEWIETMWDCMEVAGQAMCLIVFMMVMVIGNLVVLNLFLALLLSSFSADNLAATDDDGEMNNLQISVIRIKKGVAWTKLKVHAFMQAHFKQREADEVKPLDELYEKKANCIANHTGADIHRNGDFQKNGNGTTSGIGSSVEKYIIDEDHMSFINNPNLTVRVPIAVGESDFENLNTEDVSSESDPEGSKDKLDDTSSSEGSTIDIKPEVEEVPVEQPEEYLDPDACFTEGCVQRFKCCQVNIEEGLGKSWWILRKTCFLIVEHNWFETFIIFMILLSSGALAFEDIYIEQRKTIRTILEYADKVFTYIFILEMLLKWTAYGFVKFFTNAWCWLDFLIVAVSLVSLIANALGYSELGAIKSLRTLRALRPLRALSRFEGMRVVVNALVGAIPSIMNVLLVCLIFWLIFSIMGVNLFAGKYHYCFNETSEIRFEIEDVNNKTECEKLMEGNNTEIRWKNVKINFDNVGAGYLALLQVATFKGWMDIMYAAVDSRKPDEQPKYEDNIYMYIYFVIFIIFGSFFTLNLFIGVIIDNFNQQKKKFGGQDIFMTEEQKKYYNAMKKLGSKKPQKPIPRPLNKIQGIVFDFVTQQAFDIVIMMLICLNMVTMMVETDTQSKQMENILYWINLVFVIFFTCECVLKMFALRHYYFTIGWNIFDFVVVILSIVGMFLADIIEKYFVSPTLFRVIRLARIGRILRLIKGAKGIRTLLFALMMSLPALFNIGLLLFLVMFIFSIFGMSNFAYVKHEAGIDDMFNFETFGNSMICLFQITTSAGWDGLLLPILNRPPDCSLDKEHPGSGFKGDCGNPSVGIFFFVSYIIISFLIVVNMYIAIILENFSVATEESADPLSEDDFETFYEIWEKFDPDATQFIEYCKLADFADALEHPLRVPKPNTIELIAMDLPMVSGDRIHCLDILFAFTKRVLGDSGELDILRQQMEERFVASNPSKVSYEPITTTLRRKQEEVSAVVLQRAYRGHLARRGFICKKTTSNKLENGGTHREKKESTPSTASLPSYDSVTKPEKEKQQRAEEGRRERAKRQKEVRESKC
Compound,Papp A→B (MDR1 (P-gp)) [nm/s],efflux ratio (MDR1 (P-gp)),inhibition at 1 µM (Nav1.6 channel) [%],inhibition at 5 µM (Nav1.6 channel) [%],inhibition of the Nav 1.6 channel (in words) (Nav1.6 channel; at 5 μM)
CNC(=O)[C@@H]1CN(Cc2cnc(Oc3ccc(F)cc3F)nc2)CCO1 [Example 23],650,0.9,0.1,2.9,–
CNC(=O)[C@@H]1CN(Cc2cnc(Oc3ccc(Cl)cc3F)nc2)CCO1 [Example 24],560,0.8,5.8,-3.7,–
CNC(=O)[C@@H]1CN(Cc2cnc(Oc3ccc(C)cc3C)nc2)CCO1 [Example 22],570,0.7,3.8,-10.4,–
CNC(=O)[C@@H]1CN(Cc2cnc(Oc3ccc(C)cc3F)nc2)CCO1 [Example 20],800,0.7,-8.9,-10.1,–
CNC(=O)[C@@H]1CN(Cc2cnc(Oc3ccc(F)cc3C)nc2)CCO1 [Example 21],560,1,1.3,3.6,–

# Results, then the molecule that gave them:
Papp A→B (MDR1 (P-gp)) [nm/s],efflux ratio (MDR1 (P-gp)),inhibition at 1 µM (Nav1.6 channel) [%],inhibition at 5 µM (Nav1.6 channel) [%],inhibition of the Nav 1.6 channel (in words) (Nav1.6 channel; at 5 μM),Compound
950,0.6,12.8,5.7,–,CNC(=O)[C@@H]1CN(Cc2cnc(Oc3ccccc3Cl)nc2)CCO1 [Example 26]
880,0.5,-11.8,-18.8,not showing any significant inhibition,CNC(=O)[C@@H]1CN(Cc2cnc(Oc3ccc(Cl)cc3)nc2)CCO1 [Example 25]
540,0.7,-3.1,4.3,–,CNC(=O)[C@@H]1CN(Cc2cnc(Oc3ccccc3F)nc2)CCO1 [Example 27]
830,0.5,-6.2,-14.6,–,CNC(=O)[C@@H]1CN(Cc2cnc(Oc3ccc(C)cc3)nc2)CCO1 [Example 28]
820,0.5,-7.7,-13.5,–,CNC(=O)[C@@H]1CN(Cc2cnc(Oc3ccc(F)cc3)nc2)CCO1 [Example 32]

# Source: patent publication US11104670B2, “4-pyrimidin-5-ylmethyl-morpholine derivatives and the use thereof as medicament” (Boehringer Ingelheim International GmbH, priority 2018, dated 2021)
